Source: patent US10336701B2, “Pyridin-2-one derivatives of formula (II) useful as EP3 receptor antagonists” (Janssen Pharmaceutica NV, priority 2017, dated 2019)

Legend:
EP3 receptor [1] = biological target: T1, EP3 receptor (Homo sapiens, UniProt P43115); assay: CHO cell cAMP assay (forskolin and sulprostone stimulated, HTRF); assay type: cell-based; details: CHO cells; sulprostone 700 nM (EC80) and FSK 2 μM (EC70), 37° C. for 30 minutes; read-out: CHO_cAMP IC50
T1 construct: purchased Millipore HTS092M
T1 sequence (P43115 1-390): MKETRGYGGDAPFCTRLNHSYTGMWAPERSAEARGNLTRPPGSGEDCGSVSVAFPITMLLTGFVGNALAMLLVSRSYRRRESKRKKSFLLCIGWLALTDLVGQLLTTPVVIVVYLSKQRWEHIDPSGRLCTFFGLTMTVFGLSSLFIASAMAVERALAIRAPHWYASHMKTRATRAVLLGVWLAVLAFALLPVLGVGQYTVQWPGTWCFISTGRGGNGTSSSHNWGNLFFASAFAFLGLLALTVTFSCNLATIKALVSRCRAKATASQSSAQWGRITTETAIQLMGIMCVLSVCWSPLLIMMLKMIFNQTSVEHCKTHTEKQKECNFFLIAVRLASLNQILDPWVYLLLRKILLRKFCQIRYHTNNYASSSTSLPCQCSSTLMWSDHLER

EP3 receptor [2] = biological target: T1, EP3 receptor; assay: [3H]-PGE2 binding assay (EP3 competition binding); details: read-out: [3H]-PGE2 Binding Ki
Outline: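 Scintillation-bead competition binding with EP3 membranes (2 μg/well), 2 nM [3H]-PGE2, 0.1% DMSO, in 50 mM Tris, 10 mM MgCl2, 1 mM EDTA, pH 7.4.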

SMILES | IC50 (EP3 receptor [1]) [µM] | Ki (EP3 receptor [2]) [µM]
CC(C)C(C(=O)NS(=O)(=O)c1cc(Cl)c(Cl)s1)c1ccc(-c2ccc3cccc(F)c3c2)[nH]c1=O (stereo not shown) [compound 175, N-(4,5-dichlorothiophen-2-ylsulfonyl)-2-(6-(8-fluoronaphthalen-2-yl)-2-oxo-1,2-dihydropyridin-3-yl)-3-methylbutanamide] | 0.171 | 0.11
CC(C)C1(Cc2ccc(-c3ccc4cccc(F)c4c3)[nH]c2=O)NC(=O)NC1=O (stereo not shown) [compound 263, 5-((6-(8-fluoronaphthalen-2-yl)-2-oxo-1,2-dihydropyridin-3-yl)methyl)-5-isopropylimidazolidine-2,4-dione] | 0.336 | 0.108
CC(C)/C(Cc1ccc(-c2ccc3cccc(F)c3c2)[nH]c1=O)=C1/OC(=O)NC1=O [Compound #306, (E)-5-(1-(6-(8-fluoronaphthalen-2-yl)-2-oxo-1,2-dihydropyridin-3-yl)-3-methylbutan-2-ylidene)oxazolidine-2,4-dione] | 0.111 | 0.054
NC(=O)C(C1=CCCCC1)c1ccc(-c2ccc3ccccc3c2)[nH]c1=O (stereo not shown) [compound 226, 2-(cyclohex-1-en-1-yl)-2-(6-(naphthalen-2-yl)-2-oxo-1,2-dihydropyridin-3-yl)acetamide] | 4.96 | 0.186
CCn1ncc2c(F)cc(-c3ccc(C(Cc4noc(=O)[nH]4)C(C)C)c(=O)[nH]3)cc21 (stereo not shown) [Compound #99, 3-(2-(6-(1-ethyl-4-fluoro-1H-indazol-6-yl)-2-oxo-1,2-dihydropyridin-3-yl)-3-methylbutyl)-1,2,4-oxadiazol-5(4H)-one] | 4.88 | 0.921
O=C1NC(=O)C2(CCC(c3ccc(-c4ccc5ccccc5c4)[nH]c3=O)CC2)N1 (stereo not shown) [compound 203, 8-(6-(naphthalen-2-yl)-2-oxo-1,2-dihydropyridin-3-yl)-1,3-diazaspiro[4.5]decane-2,4-dione] | 1.41 | 0.106
CC(C)C(C(=O)NCCN(C)C)c1ccc(-c2ccc3ncsc3c2)[nH]c1=O (stereo not shown) [compound 246, 2-(6-(benzo[d]thiazol-6-yl)-2-oxo-1,2-dihydropyridin-3-yl)-N-(2-(dimethylamino)ethyl)-3-methylbutanamide] | 17 | > 10
CC(C)C(Cc1ccc(-c2ccc3cccc(F)c3c2)[nH]c1=O)C1OC(=O)NC1=O (stereo not shown) [Compound #308, 5-(1-(6-(8-fluoronaphthalen-2-yl)-2-oxo-1,2-dihydropyridin-3-yl)-3-methylbutan-2-yl)oxazolidine-2,4-dione] | 0.21 | 0.046
O=C1NC(=O)C2(CCCC(c3ccc(-c4ccc5ccccc5c4)[nH]c3=O)C2)O1 (stereo not drawn) [compound 188, anti-7-(6-(naphthalen-2-yl)-2-oxo-1,2-dihydropyridin-3-yl)-1-oxa-3-azaspiro[4.5]decane-2,4-dione] | 0.12 | 0.015
CC(C)C(/C=C1\OC(=O)NC1=O)c1ccc(-c2cc(Cl)c3c(c2)ncn3C)[nH]c1=O (stereo not shown) [compound 97, (Z)-5-(2-(6-(7-chloro-1-methyl-1H-benzo[d]imidazol-5-yl)-2-oxo-1,2-dihydropyridin-3-yl)-3-methylbutylidene)oxazolidine-2,4-dione] | 0.666 | 0.179
CC(C)C(C(=O)NCCOCCN(C)C)c1ccc(-c2ccc3cccc(F)c3c2)[nH]c1=O (stereo not shown) [compound 233, N-(2-(2-(dimethylamino)ethoxy)ethyl)-2-(6-(8-fluoronaphthalen-2-yl)-2-oxo-1,2-dihydropyridin-3-yl)-3-methylbutanamide] | 0.325 | 0.015
CCn1ncc2c(F)cc(-c3ccc(C4CCN(S(=O)(=O)C(C)C)CC4)c(=O)[nH]3)cc21 [compound 198, 6-(1-ethyl-4-fluoro-1H-indazol-6-yl)-3-(1-(isopropylsulfonyl)piperidin-4-yl)pyridin-2(1H)-one] | 0.53 | 0.019
CCN1CCOc2ccc(-c3ccc(C(c4noc(=O)[nH]4)C(C)C)c(=O)[nH]3)cc21 (stereo not shown) [Compound #278, 3-(1-(6-(4-ethyl-3,4-dihydro-2H-benzo[b][1,4]oxazin-6-yl)-2-oxo-1,2-dihydropyridin-3-yl)-2-methylpropyl)-1,2,4-oxadiazol-5(4H)-one] | 0.591 | 0.368

The remaining lines, values ahead:

IC50 (EP3 receptor [1]) [µM] | Ki (EP3 receptor [2]) [µM] | SMILES
> 20 | > 10 | CC(C)S(=O)(=O)N1CCC(c2ccc(-c3ccc4cc(F)ccc4c3)[nH]c2=O)CC1 [compound 199, 6-(6-fluoronaphthalen-2-yl)-3-(1-(isopropylsulfonyl)piperidin-4-yl)pyridin-2(1H)-one]
0.734 | 0.308 | CC(C)C(/C=C1\OC(=O)NC1=O)c1ccc(-c2ccc3cccc(C(F)(F)F)c3c2)[nH]c1=O (stereo not shown) [compound 143, 5-(3-methyl-2-(2-oxo-6-(8-(trifluoromethyl)naphthalen-2-yl)-1,2-dihydropyridin-3-yl)butylidene)oxazolidine-2,4-dione]
> 20 | > 10 | O=c1[nH]c(-c2ccc3ccccc3c2)ccc1C1CCc2oncc2C1 (stereo not shown) [compound 187, 6-(naphthalen-2-yl)-3-(4,5,6,7-tetrahydrobenzo[d]isoxazol-5-yl)pyridin-2(1H)-one]
0.149 | 0.006 | CCN1CCOc2c(F)cc(-c3ccc(C(CN4CCS(=O)(=O)CC4)C(C)C)c(=O)[nH]3)cc21 (stereo not shown) [Compound #129, 4-{2-[6-(4-ethyl-8-fluoro-2,3-dihydro-1,4-benzoxazin-6-yl)-2-oxo-1H-pyridin-3-yl]-3-methylbutyl}-1,4-thiomorpholine-1,1-dione]
> 20 | > 10 | O=c1[nH]c(-c2ccc3ccccc3c2)ccc1C1CCNCC1 [compound 194, 6-(naphthalen-2-yl)-3-(piperidin-4-yl)pyridin-2(1H)-one]
1.3 | 0.153 | CC(C)C(F)(C(=O)NS(=O)(=O)c1cc(F)cc(F)c1)c1ccc(-c2ccc3cccc(F)c3c2)[nH]c1=O (stereo not shown) [compound 173, N-((3,5-difluorophenyl)sulfonyl)-2-fluoro-2-(6-(8-fluoronaphthalen-2-yl)-2-oxo-1,2-dihydropyridin-3-yl)-3-methylbutanamide]
0.499 | 0.18 | O=C1NC(=O)C(Cc2ccc(-c3ccc4cccc(F)c4c3)[nH]c2=O)O1 (stereo not shown) [compound 252, 5-((6-(8-fluoronaphthalen-2-yl)-2-oxo-1,2-dihydropyridin-3-yl)methyl)oxazolidine-2,4-dione]
0.009 | 0.003 | CCn1ncc2c(F)cc(-c3ccc(C(CC)(CC)c4ccon4)c(=O)[nH]3)cc21 [Compound #29, 6-(1-ethyl-4-fluoro-1H-indazol-6-yl)-3-(3-(isoxazol-3-yl)pentan-3-yl)pyridin-2(1H)-one]
1.14 | 0.049 | CC(C)C(F)(C(N)=O)c1ccc(-c2ccc3ccccc3c2)[nH]c1=O (stereo not shown) [compound 217, 2-fluoro-3-methyl-2-(6-(naphthalen-2-yl)-2-oxo-1,2-dihydropyridin-3-yl)butanamide]
3.96 | 0.398 | CC(C)C(C(=O)NCCN(C)C)c1ccc(-c2ccc3cc(F)ccc3c2)[nH]c1=O (stereo not shown) [compound 242, N-(2-(dimethylamino)ethyl)-2-(6-(6-fluoronaphthalen-2-yl)-2-oxo-1,2-dihydropyridin-3-yl)-3-methylbutanamide]
0.194 | 0.008 | CCn1ncc2c(F)cc(-c3ccc(C4=CCN(S(=O)(=O)C(C)C)C4)c(=O)[nH]3)cc21 [compound 297, 6-(1-ethyl-4-fluoro-1H-indazol-6-yl)-3-(1-(isopropylsulfonyl)-2,5-dihydro-1H-pyrrol-3-yl)pyridin-2(1H)-one]
0.638 | 0.041 | CC(C)C(C(=O)NC1CN(C)C1)c1ccc(-c2ccc3cccc(F)c3c2)[nH]c1=O (stereo not shown) [compound 182, 2-(6-(8-fluoronaphthalen-2-yl)-2-oxo-1,2-dihydropyridin-3-yl)-3-methyl-N-(1-methylazetidin-3-yl)butanamide]
0.066 | 0.012 | CC(C)C(Cc1ccc(-c2ccc3cccc(F)c3c2)[nH]c1=O)c1nnc[nH]1 (stereo not shown) [compound 309, 6-(8-Fluoronaphthalen-2-yl)-3-(3-methyl-2-(4H-1,2,4-triazol-3-yl)butyl)pyridin-2(1H)-one]
2.39 | 0.501 | CC(C)C(C(=O)NCCN(C)C)c1ccc(-c2ccc3c(c2)OCCN3C)[nH]c1=O (stereo not shown) [compound 244, N-(2-(dimethylamino)ethyl)-3-methyl-2-(6-(4-methyl-3,4-dihydro-2H-benzo[b][1,4]oxazin-7-yl)-2-oxo-1,2-dihydropyridin-3-yl)butanamide]
0.548 | 0.107 | CCn1ncc2c(F)cc(-c3ccc(C(c4noc(=O)[nH]4)C(C)C)c(=O)[nH]3)cc21 (stereo not shown) [Compound #277, 3-(1-(6-(1-ethyl-4-fluoro-1H-indazol-6-yl)-2-oxo-1,2-dihydropyridin-3-yl)-2-methylpropyl)-1,2,4-oxadiazol-5(4H)-one]
0.024 | 0.02 | CC(C)C(CC(=O)Nc1ncc[nH]1)c1ccc(-c2ccc3cccc(F)c3c2)[nH]c1=O (stereo not shown) [compound 261, 3-(6-(8-fluoronaphthalen-2-yl)-2-oxo-1,2-dihydropyridin-3-yl)-N-(1H-imidazol-2-yl)-4-methylpentanamide]
